US11851391B2, “Antifungal compounds and methods of forming the same” (University of Kentucky Research Foundation, priority 2018, dated 2023)
Converted amounts (≈) assume the structure as drawn. Where two headings read alike, the source gives them in different places.

Assays:
[1] = tested on: C. albicans ATCC 90819(R) (strain D); test: MIC determination, in vitro antifungal assay (CLSI M27-A3); assay type: cell-based, Candida albicans; details: MIC-0, 48 h at 35° C.
Outline: (§1)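 MICs followed broth microdilution per CLSI M27-A3 with minor modifications, in RPMI 1640 buffered to pH 7.0 with MOPS at 35° C. Inoculum was 2-4×10^3 CFU/mL from overnight YPD cultures, with DMSO kept <1.25%. MIC was the lowest concentration giving complete inhibition (MIC-0).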

[2] = tested on: C. albicans ATCC MYA-1237(R) (strain F); test: as above; assay type: cell-based, Candida albicans; details: MIC-0, 48 h at 35° C.
Outline: as §1

[3] = tested on: murine red blood cells (mRBCs); details: for Percentage of hemolysis (±SDEV): mouse, 60 min
Description: Thus, the hemolytic activity for these bishydrazones was investigated against murine red blood cells (mRBCs).
Murine red blood cells (mRBCs) were prepared by suspending 1 mL of murine blood in 3 mL of PBS prior to centrifugation at 1,000 rpm for 5 min. The mRBCs were washed four times in PBS and resuspended in the same buffer to a final concentration of 10^7 mRBC/mL. […] The tubes were incubated at 37° C. for 60 min. […] Eppendorf tubes containing 200 μL of ddH2O and 2 μL of 1% v/v Triton™ X-100 served as negative (blank) and positive controls, respectively. The percentage of hemolysis was calculated using the following equation: % hemolysis=[(absorbance of sample)−(absorbance of blank)]×100/(absorbance of positive control).

[4] = tested on: human lung carcinoma cell line A549; test: In vitro cytotoxicity assay (resazurin); assay type: cell-based; details: 24 h
Description: The human bronchus normal cell line BEAS-2B (ATCC CRL-9609) and the human lung carcinoma cell line A549 (ATCC CRL-185) were kind gifts from the laboratories of Dr. Matthew S. Gentry (University of Kentucky, Lexington, KY, USA) and Dr. David K. Orren (University of Kentucky, Lexington, KY, USA). The mammalian cells were grown in Dulbecco's Modified Eagle's Medium (DMEM) (from ATCC) with 10% fetal bovine serum (FBS) (from ATCC) and 1% Pen/Strep (from ATCC). Cell lines were cultured at 37° C. with 5% CO2 and passaged by trypsinization with 0.05% trypsin:0.53 mM EDTA (from ATCC). Cell confluency was determined by using a Nikon Eclipse TS100 microscope (Minato, Tokyo, Japan).
Cytotoxicity assays were performed as previously described with slight modifications. A549 and BEAS-2B cells were first thawed from stocks and grown. The confluent cells were transferred to a 96-well microtiter plates at density of 3000 cells/well. The 96-well plates were incubated at 37° C. with 5% CO2 overnight. […] The stock solutions were serially diluted in 1.5 mL eppendorf tubes to achieve concentrations of 31-0.12 mg/mL. 1 μL of these 1000× compound stock solutions was then added to 999 μL of DMEM medium in 1.5 mL eppendorf tubes to obtain final concentrations of 31-0.12 μg/mL. […] The 96-well plates were further incubated for 24 h at 37° C. with 5% CO2. To evaluate cell survival, each well was treated with 10 μL (25 mg/L) of resazurin sodium salt (Sigma-Aldrich, St. Louis, MO, USA) and incubated for another 6 h. Metabolically active cells can convert resazurin to the highly fluorescent dye, resorufin, and be detected at A560 excitation and A590 emission using a SpectraMax M5 plate reader (Molecular Devices, San Jose, CA, USA). […] The percentage survival rates were calculated by using the following formula: % cell survival=[(fluorescence of sample)−(fluorescence of background)]×100/[(fluorescence of negative control)−(fluorescence of background)]. Experiments were done in duplicate.

[5] = Candida albicans, ATCC90819, 48 h, read-out: MIC
[6] = Candida albicans, 48 h, read-out: MIC
[7] = A549 (printed A459) at 31 μg/mL

| Structure (SMILES) | MIC [1, 5] | MIC [2, 6] | hemolytic activity (in words) [3] | Percentage of hemolysis (±SDEV) ([3]; 0.975 μg/mL) | Percentage of hemolysis (±SDEV) ([3]; 1.95 μg/mL) | Percentage of hemolysis (±SDEV) ([3]; 3.9 μg/mL) | Percentage of hemolysis (±SDEV) ([3]; 7.8 μg/mL) | Percentage of hemolysis (±SDEV) ([3]; 15.6 μg/mL) | Percentage of hemolysis (±SDEV) ([3]; 31.3 μg/mL) | toxicity (in words) ([4]; A549 at 15.5 μg/mL) | MIC [1] | MIC [2] | Percentage of hemolysis (±SDEV) ([3]; 62.5 μg/mL) | toxicity (in words) [4, 7] |
| --- | --- | --- | --- | --- | --- | --- | --- | --- | --- | --- | --- | --- | --- | --- |
| C(=N\Nc1ccccc1)/c1ccc(-c2cccc(/C=N/Nc3ccccc3)c2)cc1 [Compound 7a] | 31.3 µg/mL (≈ 80.2 µM) | 31.3 µg/mL (≈ 80.2 µM) | lack of hemolytic activity | 0% | 3.5 ± 3.3% | 1.5 ± 0.9% | 8.5 ± 5.1% | 14.1 ± 0.1% | 16.7 ± 0.9% |  |  |  |  |  |
| Fc1cccc(N/N=C/c2ccc(-c3cccc(/C=N/Nc4cccc(F)c4)c3)cc2)c1 [Compound 12a] | 7.8 to 15.6 µg/mL (≈ 18.3 to 36.6 µM) | 7.8 to 15.6 µg/mL (≈ 18.3 to 36.6 µM) | lack of hemolytic activity | 4.6 ± 2.5% | 0.6 ± 0.6% | 2.5 ± 2.7% | 7.9 ± 0.1% |  | 32.6 ± 9.6% | no toxicity | 15.6 µg/mL (≈ 36.6 µM) | 15.6 µg/mL (≈ 36.6 µM) | 39.5 ± 12.1% |  |
| COc1ccc(N/N=C/c2ccc(-c3cccc(/C=N/Nc4ccc(OC)cc4)c3)cc2)cc1 [Compound 15a] | 1.95 to 3.9 µg/mL (≈ 4.33 to 8.66 µM) | 1.95 to 3.9 µg/mL (≈ 4.33 to 8.66 µM) | lack of hemolytic activity | 2.6 ± 3.4% | 4.5 ± 1.7% | 3.0 ± 1.6% | 2.6 ± 2.8% | 7.8 ± 3.3% | 9.6 ± 1.7% |  | 3.9 µg/mL (≈ 8.66 µM) | 3.9 µg/mL (≈ 8.66 µM) |  | generally non-toxic |
| COc1ccc(N/N=C/c2ccc(-c3ccc(/C=N/Nc4ccc(OC)cc4)cc3)cc2)cc1 [Compound 15b] | 7.8 to 15.6 µg/mL (≈ 17.3 to 34.6 µM) | 7.8 to 15.6 µg/mL (≈ 17.3 to 34.6 µM) | lack of hemolytic activity | 1.6 ± 2.3% | 1.9 ± 0.3% | 2.8 ± 0.6% | 4.2 ± 3.1% | 6.7 ± 2.0% | 12.6 ± 4.7% |  | 7.8 µg/mL (≈ 17.3 µM) | 15.6 µg/mL (≈ 34.6 µM) |  | generally non-toxic |
| Fc1ccc(N/N=C/c2ccc(-c3cccc(/C=N/Nc4ccc(F)cc4)c3)cc2)cc1 [Compound 17a] | > 31.3 µg/mL | 15.6 µg/mL (≈ 36.6 µM) |  | 0% | 6.0 ± 2.1% | 4.3 ± 1.6% | 9.5 ± 3.3% | 9.9 ± 2.1% | 14.4 ± 0.9% |  |  |  | 26.1 ± 11.1% | generally non-toxic |
| Fc1ccc(N/N=C/c2ccc(-c3ccc(/C=N/Nc4ccc(F)cc4)cc3)cc2)cc1 [Compound 17b] | 31.3 µg/mL (≈ 73.4 µM) | 7.8 to 15.6 µg/mL (≈ 18.3 to 36.6 µM) |  | 0% | 1.1 ± 1.5% | 0.7 ± 1.1% | 3.2 ± 3.0% | 9.0 ± 8.5% | 9.6 ± 6.7% |  |  | 7.8 µg/mL (≈ 18.3 µM) | 28.3 ± 4.1% |  |
| C/C(=N\Nc1ccc(F)cc1)c1ccc(-c2ccc(/C(C)=N/Nc3ccc(F)cc3)cc2)cc1 [Compound 17c, 4,4′-bis((E)-1-(2-(4-fluorophenyl)hydrazono)ethyl)-1,1′-biphenyl] | 7.8 µg/mL (≈ 17.2 µM) | 7.8 µg/mL (≈ 17.2 µM) |  | 1.4 ± 1.1% | 2.6 ± 0.9% | 2.6 ± 2.7% | 5.9 ± 0.3% | 7.4 ± 1.1% | 9.5 ± 2.2% | no toxicity |  |  | 26.2 ± 7.7% |  |
| Fc1ccc(N/N=C/c2ccc(-c3cccc(/C=N/Nc4ccc(F)cc4F)c3)cc2)c(F)c1 [Compound 20a] | 15.6 µg/mL (≈ 33.7 µM) | 7.8 µg/mL (≈ 16.9 µM) | lack of hemolytic activity | 0% | 4.5 ± 2.3% | 4.2 ± 2.8% | 8.6 ± 1.6% | 14.6 ± 1.6% | 14.6 ± 0.7% | no toxicity |  |  |  |  |
